Test results reported in patent US20230339915A1 (Vertex Pharmaceuticals Incorporated, priority 2020, published 2023).

What was measured:
[1] = molecular target: NL20 human bronchial epithelial cells expressing human Z-AAT (Homo sapiens (Human), UniProt P01009, E366K); experiment: AAT Function Assay (MSD Assay NL20-SI Cell Line); format: cell-based; settings: functionally active AAT (AAT-hNE complex, MSD) in supernatant of NL20 cells expressing human Z-AAT; read-out: NL20 Functional EC50
How it was run: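 Secreted active Z-AAT was measured by MSD electrochemiluminescence: supernatants (45-fold total dilution) were incubated with human neutrophil elastase to form AAT–elastase complexes, captured by goat anti-AAT and detected with labelled anti-elastase. Cells were doxycycline-induced (0.1 μM) NL20 bronchial cells treated with compound overnight; M-AAT standard curve.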

[2] = molecular target: purified Z-AAT protein from human plasma (Homo sapiens (Human), UniProt P01009, E366K); experiment: Biochemical Assay (Z-AAT Elastase Activity Assay); settings: purified Z-AAT pre-incubated with compound 1 hour, then human neutrophil elastase and fluorescent substrate
Chain of purified Z-AAT protein from human plasma (P01009 25-418 E366K limits assumed): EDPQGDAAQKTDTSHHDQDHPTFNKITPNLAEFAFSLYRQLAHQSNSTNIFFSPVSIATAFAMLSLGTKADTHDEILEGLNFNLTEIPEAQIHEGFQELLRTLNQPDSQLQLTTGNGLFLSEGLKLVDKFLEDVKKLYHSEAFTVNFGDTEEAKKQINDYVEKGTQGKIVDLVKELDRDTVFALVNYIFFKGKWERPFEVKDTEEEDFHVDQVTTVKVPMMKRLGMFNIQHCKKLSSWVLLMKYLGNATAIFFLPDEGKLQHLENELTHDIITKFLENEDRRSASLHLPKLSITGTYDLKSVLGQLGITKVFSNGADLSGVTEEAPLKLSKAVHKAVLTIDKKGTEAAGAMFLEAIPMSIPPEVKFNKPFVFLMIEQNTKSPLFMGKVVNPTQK
How it was run: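 Purified plasma Z-AAT (20 nM) preincubated with compounds 1 h at room temperature, then 3 nM human neutrophil elastase added in PBS + 0.01% BRIJ35 for 30 min to form suicide complex. Residual elastase activity read immediately by fluorescence after adding 300 μM MeOSuc-AAPV-AMC substrate solution.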

Chain of NL20 human bronchial epithelial cells expressing human Z-AAT (P01009 25-418 E366K limits assumed): as above

Row | SMILES | EC50 [1] [nM] | IC50 [2] [nM]
1 | Cc1cc(-n2c(C3CCOCC3)c([C@H]3CC[C@@H](C(=O)O)CC3)c3cc(O)ccc32)ccc1F [Compound 55] | > 2000 | > 30000
2 | Cc1cc(-n2c(C)c(CC(=O)O)c3cc(O)ccc32)ccc1F [Compound 162] | > 2000 | > 30000
3 | CC(C)c1c([C@H]2C[C@@H](C(=O)O)C2)c2cc(O)ccc2n1-c1ccc(F)cc1 [Compound 91] | > 2000 | > 30000
4 | O=C(O)[C@]1(CF)C[C@@H](c2c(C3CCOCC3)n(-c3ccc(F)cc3)c3ccc(O)cc32)C1 [Compound 118] | > 2000 | > 30000
5 | O=C(O)[C@H]1C[C@H](c2c(C3CCOCC3)n(-c3ccc(F)c(F)c3)c3ccc(O)cc32)C1 [Compound 116] | > 2000 | > 30000
6 | Cc1cc(-n2c(C(C)C)c(C3CN(CC(=O)O)C3)c3cc(O)ccc32)ccc1F [Compound 147] | > 2000 | > 30000
7 | O=C(O)[C@H]1CC2(C1)C[C@H](c1c(C3CCOCC3)n(-c3ccc(F)c(F)c3)c3ccc(O)cc31)C2 (stereo partly shown) [Compound 42] | 500 to 2000 | > 30000
8 | CC(C)c1c(C#N)c2cc(O)ccc2n1-c1ccc(F)cc1 [Compound 185, 1-(4-fluorophenyl)-5-hydroxy-2-isopropyl-1H-indole-3-carbonitrile] | < 500 | > 30000
9 | O=C(O)[C@H]1C[C@H](Cc2c(C3CCOCC3)n(-c3ccc(F)c(Cl)c3)c3ccc(O)cc23)C1 [Compound 34] | > 2000 | > 30000
10 | Cc1cc(-n2c(C3CCOCC3)c(CC3(C(=O)O)CC3)c3cc(O)ccc32)ccc1F [Compound 103] | > 2000 | > 30000
11 | N#Cc1c(C2CCC2)n(-c2ccccc2)c2ccc(O)cc12 [Compound 197] | 500 to 2000 | > 30000
12 | O=C(O)[C@H]1CC2(C1)C[C@H](c1c(C3CCOCC3)n(-c3ccc(F)cc3)c3ccc(O)cc31)C2 (stereo partly shown) [Compound 50] | 500 to 2000 | > 30000
13 | Cc1cc(-n2c(C3CC3)c(C(Cc3ccccc3)C(=O)O)c3cc(O)ccc32)ccc1F (stereo not shown) [Compound 156, 2-(2-cyclopropyl-1-(4-fluoro-3-methylphenyl)-5-hydroxy-1H-indol-3-yl)-3-phenylpropanoic acid] | > 2000 | > 30000
14 | Cc1cc(-n2c(C)c(CC(=O)O)c3cc(O)ccc32)ccn1 [Compound 161] | > 2000 | > 30000
15 | Cc1cc(-n2c(C(C)C)c(CCCC(=O)O)c3cc(O)ccc32)ccc1F [Compound 96] | 500 to 2000 | > 30000
16 | Cc1cc(-n2c(C(C)C)c(CCC(=O)O)c3cc(O)ccc32)ccc1F [Compound 122] | 500 to 2000 | > 30000
17 | Cc1cc(-n2c([C@H]3CCOC3)c([C@H]3C[C@H](C(=O)O)C3)c3cc(O)ccc32)ccc1F [Compound 86] | > 2000 | > 30000
18 | Cc1cc(-n2c(C(C)C)c(C3CCOC(C(=O)O)C3)c3cc(O)ccc32)ccc1F (stereo not shown) [Compound 64] | > 2000 | > 30000

Row | SMILES | EC50 [1] [nM] | IC50 [2] [nM]
19 | Cc1cc2c(cc1O)c(C#N)c(C)n2-c1ccc(F)c(C)c1 [Compound 210] | > 2000 | > 30000
20 | Cc1cc(-n2c(C(C)C)c([C@H]3CC[C@H](C(=O)O)C3)c3cc(O)ccc32)ccc1F (racemic) [Compound 79] | 500 to 2000 | > 5000
21 | CC(C)(C)OC(=O)N1CC(c2c(C#N)c3cc(O)ccc3n2-c2ccc(F)cc2)C1 [Compound 195] | > 2000 | > 30000
22 | Cc1cc(-n2c(C(C)C)c([C@H]3C[C@@H](C(=O)O)C3)c3cc(O)ccc32)ccc1F [Compound 98] | > 2000 | > 30000
23 | Cc1cc(-n2c(C3CC3)c([C@H]3C[C@@H]3C(=O)O)c3cc(O)ccc32)ccc1F [Compound 132] | > 2000 | > 30000
24 | COC[C@]1(C(=O)O)C[C@H](c2c(C3CCOCC3)n(-c3ccc(F)c(C)c3)c3ccc(O)cc32)C1 [Compound 106, trans-3-(1-(4-fluoro-3-methylphenyl)-5-hydroxy-2-(tetrahydro-2H-pyran-4-yl)-1H-indol-3-yl)-1-(methoxymethyl)cyclobutane-1-carboxylic acid] | > 2000 | > 30000
25 | COC(C)(Cc1c(C(C)C)n(-c2ccc(F)c(C)c2)c2ccc(O)cc12)C(=O)O (stereo not shown) [Compound 151, 3-(1-(4-fluoro-3-methylphenyl)-5-hydroxy-2-isopropyl-1H-indol-3-yl)-2-methoxy-2-methylpropanoic acid] | > 2000 | > 30000
26 | CNS(=O)(=O)N1CC(c2c(C(C)C)n(-c3ccc(F)c(C)c3)c3ccc(O)cc23)C1 [Compound 213, 3-(1-(4-fluoro-3-methylphenyl)-5-hydroxy-2-isopropyl-1H-indol-3-yl)-N-methylazetidine-1-sulfonamide] | > 2000 | > 5000
27 | N#Cc1c(C2CCOCC2)n(-c2ccccc2)c2ccc(O)cc12 [Compound 202] | > 2000 | > 30000
28 | Cc1cc(-n2c(C3CCOCC3)c(C[C@H]3C[C@H](C(=O)O)C3)c3cc(O)ccc32)ccc1F [Compound 7] | > 2000 | > 30000
29 | O=C(O)[C@H]1C[C@H](c2c(C3CCOCC3)n(-c3ccc(F)c(Cl)c3)c3ccc(O)cc32)C1 [Compound 114] | 500 to 2000 | > 30000
30 | CC(C)c1c([C@H]2CC3(C[C@H](C(=O)O)C3)C2)c2cc(O)ccc2n1-c1ccc(F)c(F)c1 (stereo partly shown) [Compound 58] | 500 to 2000 | 2000 to 5000
31 | CCC(O)c1c(C#N)c2cc(O)ccc2n1-c1ccnc(C)c1 (stereo not shown) [Compound 192, 5-hydroxy-2-(I-hydroxypropyl)-1-(2-methylpyridin-4-yl)-1H-indole-3-carbonitrile] | > 2000 | > 30000
32 | Cc1cc(-n2c(C(C)C)c([C@H]3C[C@](C)(C(=O)O)C3)c3c(F)c(O)c(F)cc32)ccc1F [Compound 22] | 500 to 2000 | 2000 to 5000
33 | O=C(O)[C@H]1C[C@@H](c2c(C3CCOCC3)n(-c3ccc(F)cc3)c3ccc(O)cc32)C1 [Compound 46] | > 2000 | > 30000
34 | O=C(O)[C@H]1CCC[C@@H](c2c(C3CCOCC3)n(-c3ccc(F)c(F)c3)c3ccc(O)cc23)C1 (relative stereo) [Compound 136, cis-3-(1-(3,4-difluorophenyl)-5-hydroxy-2-(tetrahydro-2H-pyran-4-yl)-1H-indol-3-yl)cyclohexane-1-carboxylic acid] | 500 to 2000 | > 30000
35 | Cc1cc(-n2c(C(C)C)c([C@H]3C[C@H](C(=O)O)C3)c3cc(O)ccc32)ccc1F [Compound 145] | 500 to 2000 | > 5000
